Literature values, collected in patent US7718595B2, “Light duty liquid cleaning compositions and methods of manufacture and use thereof comprising organic acids” (priority 2008, dated 2010).

Experiments:
[1] = list category
[2] = not given; remark: listed apart in the source

Compound	solubility in water	EPA Inert List [1]	pKa [2]
O=P(O)(O)OP(=O)(O)OP(=O)(O)O [Sodium tripolyphosphate]	about 14 wt-%		
O=S(=O)([O-])[O-].[Mg+2] [Mg2SO4]		4A	
CCCCCCCCCCCC(=O)NCCC[N+](C)(C)CC(=O)[O-] [Laurylamidopropyl Betaine]		3	
sodium xylene sulfonate [SXS]		3	
CC(O)C(=O)O (centres unmarked) [Lactic acid]		4B	about 3.8
CCO [Ethanol]		4B	
O=C([O-])CN(CCN(CC(=O)[O-])CC(=O)[O-])CC(=O)[O-].[Na+].[Na+].[Na+].[Na+] [Na4EDTA]		4B	
